# According to US8945627B2, “Micelles for the solubilization of gossypol” (priority 2011, dated 2015):
# Several values for one entry are separate records, joined by “and”; a condition that tells them apart may be missing. Equal values may be shown once. Read-outs that look alike come from different tables or passages of the source.
# What was measured:
# [1] = neutral pH; cited from earlier work
# [2] = type: physicochemical
# Experimental: Acetone was evaporated from the aqueous micelle solution under reduced pressure using a rotatory evaporator at 60° C.
# (§1) Samples for RP-HPLC were prepared by adding acetonitrile (ACN) into each micelle to break it apart and quantify drugs dissolved in ACN.
# [3] = type: physicochemical; remark: listed apart in the source
# Experimental: Acetone was evaporated from the aqueous micelle solution under reduced pressure using a rotatory evaporator at 60° C. The thin film of “polymer plus drug mixture” was reconstituted with 1 mL of 0.9% saline at 60° C.
# as §1
# [4] = test system: ES-2 ovarian monolayer cells; assay: cells; type: cell-based
# [5] = test system: ES-2 ovarian multicellular spheroids; assay: cells; type: cell-based; settings: read-out: IC50 values (nM), Spheroids (BLI)
# Experimental: Surviving cells after treatment were quantified by scanning bioluminescence of luc-ES-2 cells (IVIS optical imaging system).
# The images of FIG. 7 were collected using an inverted light microscope on spheroids treated with PEG5k-b-PCL10k micelles representing 1000 nM of total drug concentration. In advance, to obtain luciferase-expressing ES-2 cells, ES-2 cells were transfected with pGL4 with neomycin resistance using Lipofectamine 2,000.
# Bioluminescence of surviving cells was quantified and IC50 value was calculated by using Compusyn.
# [6] = 200 mg polymer
# Experimental: (§2) Supernatant was collected and drug contents were analyzed by RP-HPLC analysis.
# [7] = PEG-b-PCL micelle stability tests (drug quantification)
# Experimental: as §2
# A549 NSCLC Cells = assay: In vitro cytotoxicity, resazurin cell viability assay; type: cell-based; settings: Homo sapiens
# Experimental: Cytotoxicity was determined using a resazurin cell viability assay. A549 cells were cultured in RPMI1640, supplemented with 10% FBS, 100 IU/mL penicillin, 100 μg/mL streptomycin, and 2 mM of L-glutamine. The cells were incubated at 37° C., 5% CO2 atmosphere. Exponentially grown cells were detached from the T-flask by adding a Trypsin-EDTA solution.
# Each drug was dissolved at 10 mM as a stock solution using dimethyl sulfoxide (DMSO). […] The stock solution was diluted with cell culture media and the final concentration of DMSO was less than 0.1%. […] The fraction of viable cells were determined using a Cell titer Blue® dye assay (Promega, USA) by monitoring using fluorescence at 590 nm (emission). The inhibitory drug concentration (IC50) was determined by the median-effect equation using compusyn software (Combosyn Inc., US). The determination of IC50 was performed in three independent experiments.
# The half maximal inhibitory drug concentration (IC50) was determined by the median-effect equation:
# [formula] using CompuSyn software (Version 1.0, ComboSyn Inc., US). In the median-effect equation, fa is the fraction of affected cells; D is drug concentration; and m is the Hill slope or kinetic order.
# [8] = Stability of the poloxamer micelle solution, 24 hours at ambient temperature; settings: Pluronic F68 micelles, gossypol + paclitaxel
# Experimental: The drugs remaining in the solution were quantified by RP-HPLC described above. The micelle solution was centrifuged at 13,000 rpm for 5 minutes and was then filtered with a 0.45 μm nylon filter to remove any drug aggregates in the micelle solution. The concentration of each drug was compared with that of each drug at initial preparation to estimate the stability of micelle solution.
# [9] = singly-loaded poloxamer 188 micelles
# [10] = polymer 10 mg/ml, CYP + GSP micelles
# [11] = polymer 10 mg/ml, PTX + CYP + GSP micelles
# [12] = polymer 10 mg/ml, PTX + CYP micelles
# [13] = polymer 10 mg/ml, single drug micelles
# [14] = polymer 20 mg/ml, PTX + CYP + GSP micelles
# [15] = polymer 100 mg/ml, PTX + CYP + GSP micelles
# [16] = polymer 200 mg/ml, CYP + GSP micelles
# [17] = polymer 200 mg/ml, PTX + CYP + GSP micelles
# [18] = polymer 200 mg/ml, PTX + CYP micelles
# [19] = PTX/CYP/GSP poloxamer 188 micelles
# [20] = 1-in-1 PEG5k-b-PCL10k micelles, 200 mg polymer
# [21] = 1-in-1 micelles, 10× decreased drug loading
# [22] = 2-in-1 CYP + GSP micelles, 200 mg polymer
# [23] = 2-in-1 CYP + GSP micelles, 10× decreased drug loading
# [24] = 2-in-1 PTX + CYP micelles, 200 mg polymer
# [25] = 2-in-1 PTX + CYP micelles, 10× decreased drug loading
# [26] = 3-in-1 PTX + CYP + GSP micelles, 200 mg polymer
# [27] = 3-in-1 PTX + CYP + GSP micelles, 10× decreased drug loading
# [28] = PEG5k-b-PCL10k micelles, Celltiter Blue readout, read-out: IC50 values (nM), Monolayer (Celltiter Blue)
# [29] = PEG5k-b-PCL10k micelles, bioluminescence readout, read-out: IC50 values (nM), Monolayer (BLI)
# [30] = PEG5k-b-PCL10k micelles, bioluminescence readout
# [31] = 2-in-1 PTX + GSP micelles, 200 mg polymer
# [32] = 2-in-1 PTX + GSP micelles, 10× decreased drug loading
compound,measurement,setting,value
"C=CCNC1=C2C[C@@H](C)C[C@H](OC)[C@H](O)[C@@H](C)/C=C(\C)[C@H](OC(N)=O)[C@@H](OC)/C=C\C=C(/C)C(=O)NC(=CC1=O)C2=O [17-AAG, 17-allylamino-17-demethoxygeldanamycin]",drug level in water,[9],210 µg/mL
same,water solubility,[1],about 0.1 mg/mL
"CC1=C2C[C@H]3[C@@H](CC=C4C[C@@H](O)CC[C@@]43C)[C@@H]2CC[C@]12O[C@@H]1C[C@H](C)CN[C@H]1[C@H]2C [CYP, 11-deoxojervine]",drug loaded,[2]; [10],1.50 ± 0.50 mg/mL
same,drug loaded,[2]; [11],1.03 ± 0.02 mg/mL
same,drug loaded,[2]; [12],0.14 ± 0.06 mg/mL
same,drug loaded,[2]; [13],0.05 ± 0.03 mg/mL
same,drug loaded,[2]; [14],1.25 ± 0.11 mg/mL
same,drug loaded,[2]; [15],4.47 ± 0.38 mg/mL
same,drug loaded,[2]; [16],3.23 ± 0.99 mg/mL
same,drug loaded,[2]; [17],6.2 mg/mL and 6.20 ± 0.49 mg/mL
same,drug loaded,[2]; [18],0.89 ± 0.03 mg/mL
same,drug loaded,[3]; [10],0.16 ± 0.04 mg/mL
same,drug loaded,[3]; [11],0.21 ± 0.07 mg/mL
same,drug loaded,[3]; [12],0.03 ± 0.001 mg/mL
same,drug loaded,[3]; [13],0.012 ± 0.002 mg/mL
same,drug loaded,[3]; [14],0.27 ± 0.07 mg/mL
same,drug loaded,[3]; [15],3.55 ± 0.18 mg/mL
same,drug loaded,[3]; [16],3.5 ± 0.3 mg/mL
same,drug loaded,[3]; [17],5.1 mg/mL and 5.09 ± 0.29 mg/mL
same,drug loaded,[3]; [18],0.08 ± 0.02 mg/mL
same,IC50,"[4]; read-out: IC50 values (nM), Monolayer (BLI)",240 nM
same,IC50,"[4]; read-out: IC50 values (nM), Monolayer (Celltiter Blue)",245 nM
same,IC50,[5],64.8 nM
same,% Remaining Day 0,[6]; CYP/GSP poloxamer 188 micelles,100 ± 7.4%
same,% Remaining Day 1,[6]; CYP/GSP poloxamer 188 micelles,106.9 ± 3.4%
same,% Remaining Day 0,[6]; [19],100 ± 4.9%
same,% Remaining Day 1,[6]; [19],101.2 ± 2.3%
same,% Remaining Day 0,[7]; [20],100 ± 10.6%
same,% Remaining Day 1,[7]; [20],96.3 ± 5.0%
same,% Remaining Day 0,[7]; [21],100 ± 7.9%
same,% Remaining Day 1,[7]; [21],96.0 ± 4.4%
same,% Remaining Day 0,[7]; [22],100 ± 8.2%
same,% Remaining Day 1,[7]; [22],91.0 ± 5.3%
same,% Remaining Day 0,[7]; [23],100 ± 5.9%
same,% Remaining Day 1,[7]; [23],96.5 ± 4.4%
same,% Remaining Day 0,[7]; [24],100 ± 11.3%
same,% Remaining Day 1,[7]; [24],97.4 ± 5.7%
same,% Remaining Day 0,[7]; [25],100 ± 5.5%
same,% Remaining Day 1,[7]; [25],94.3 ± 5.3%
same,% Remaining Day 0,[7]; [26],100 ± 6.1%
same,% Remaining Day 1,[7]; [26],36.8 ± 1.5%
same,% Remaining Day 0,[7]; [27],100 ± 4.2%
same,% Remaining Day 1,[7]; [27],87.7 ± 2.6%
"Cc1cc2c(C(C)C)c(O)c(O)c(C=O)c2c(O)c1-c1c(C)cc2c(C(C)C)c(O)c(O)c(C=O)c2c1O [Gossypol, gossypol]",IC50,"A549 NSCLC Cells; A549, 72 h",6500 ± 3400 nM
same,IC50,[4]; [28],> 100000 nM
same,IC50,[4]; [29],> 100000 nM
same,IC50,[5]; [30],4820 nM
same,drug level in water,"2-in-1 poloxamer 188 micelles, gossypol + 17-AAG",5180 ± 470 µg/mL
same,drug level in water,"2-in-1 poloxamer 188 micelles, gossypol + paclitaxel",4650 ± 620 µg/mL
same,drug level in water,"2-in-1 poloxamer 188 micelles, gossypol + paclitaxel, listed as gossypol",4650 µg/mL
same,drug level in water,[9],5410 ± 140 µg/mL
same,% Remaining Day 0,[7]; [20],100 ± 4.7%
same,% Remaining Day 1,[7]; [20],89.4 ± 3.3%
same,% Remaining Day 0,[7]; [21],100 ± 5.6%
same,% Remaining Day 1,[7]; [21],98.3 ± 3.6%
same,% Remaining Day 0,[7]; [22],100 ± 4.9%
same,% Remaining Day 1,[7]; [22],89.8 ± 3.7%
same,% Remaining Day 0,[7]; [23],100 ± 4.1%
same,% Remaining Day 1,[7]; [23],95.4 ± 3.6%
same,% Remaining Day 0,[7]; [31],100 ± 4.4%
same,% Remaining Day 1,[7]; [31],97.0 ± 2.5%
same,% Remaining Day 0,[7]; [32],100 ± 7.1%
same,% Remaining Day 1,[7]; [32],89.5 ± 3.8%
same,% Remaining Day 0,[7]; [26],100 ± 3.8%
same,% Remaining Day 1,[7]; [26],82.3 ± 2.6%
same,% Remaining Day 0,[7]; [27],100 ± 3.8%
same,% Remaining Day 1,[7]; [27],81.0 ± 3.0%
"CC(=O)O[C@H]1C(=O)[C@@]2(C)[C@H]([C@H](OC(=O)c3ccccc3)[C@]3(O)C[C@H](OC(=O)[C@H](O)[C@@H](NC(=O)c4ccccc4)c4ccccc4)C(C)=C1C3(C)C)[C@]1(OC(C)=O)CO[C@@H]1C[C@@H]2O [Paclitaxel, paclitaxel]",IC50,"A549 NSCLC Cells; A549, free drugs in DMSO stock, 72 hours, n = 3, mean ± SD, two drug combinations molar ratio 1:1, three drug 5:5:1, read-out: IC50",616 ± 418 nM
same,drug loaded,[3]; [11],0.38 ± 0.12 mg/mL
same,drug loaded,[3]; [12],0.01 ± 0.001 mg/mL
same,drug loaded,"[3]; polymer 10 mg/ml, PTX + GSP micelles",0.87 ± 0.09 mg/mL
same,drug loaded,[3]; [13],0.014 ± 0.002 mg/mL
same,drug loaded,[3]; [14],0.63 ± 0.14 mg/mL
same,drug loaded,"[3]; polymer 200 mg/ml, PTX + CYP + GSP micelles, listed as PTX",6.4 mg/mL and 6.41 ± 0.63 mg/mL
same,drug loaded,[3]; [18],0.01 ± 0.01 mg/mL
same,drug loaded,"[3]; polymer 200 mg/ml, PTX + GSP micelles",3.49 ± 0.39 mg/mL
same,IC50,[4]; [28],13 nM
same,IC50,[4]; [29],12 nM
same,IC50,[5]; [30],8.7 nM
same,% Remaining Day 0,[7]; [20],100 ± 9.3%
same,% Remaining Day 1,[7]; [20],34.3 ± 3.1%
same,% Remaining Day 0,[7]; [21],100 ± 8.3%
same,% Remaining Day 1,[7]; [21],89.7 ± 5.2%
same,% Remaining Day 0,[7]; [24],100 ± 12.6%
same,% Remaining Day 1,[7]; [24],27.0 ± 2.9%
same,% Remaining Day 0,[7]; [25],100 ± 6.2%
same,% Remaining Day 1,[7]; [25],90.7 ± 5.1%
same,% Remaining Day 0,[7]; [31],100 ± 9.4%
same,% Remaining Day 1,[7]; [31],66.8 ± 4.1%
same,% Remaining Day 0,[7]; [32],100 ± 6.3%
same,% Remaining Day 1,[7]; [32],93.2 ± 4.9%
same,% Remaining Day 0,[7]; [26],100 ± 4.7%
same,% Remaining Day 1,[7]; [26],99.3 ± 2.2%
same,% Remaining Day 0,[7]; [27],100 ± 3.6%
same,% Remaining Day 1,[7]; [27],87.9 ± 2.7%
same,% w/w drug(s) @ 24 hr,[8],63.4 ± 35.4 % w/w
same,Initial drug level in water,[8],6.53 ± 0.31 mg/mL
same,Drug level @ 24 hrs in water,[8]; ambient temperature,4110 ± 2260 µg/mL
